Results reported in ChEMBL document CHEMBL1201862, “PubChem BioAssay data set” (2004).
Values joined by “and” are separate entries in the source; they are usually repeats but may differ in a detail not shown here. Equal entries are not always repeated. Active and inactive are the calls of the source.

What was measured:
[1] = molecular target: T1, Mucolipin-3 (Homo sapiens, UniProt Q8TDD5); experiment: Dose response cell-based high-throughput screening assay for agonists of the transient receptor potential channel ML3 (TRPML3). [Related pubchem assays: 1526, 1424, 1448 ]; assay type: functional
T1 sequence (Q8TDD5 whole entry): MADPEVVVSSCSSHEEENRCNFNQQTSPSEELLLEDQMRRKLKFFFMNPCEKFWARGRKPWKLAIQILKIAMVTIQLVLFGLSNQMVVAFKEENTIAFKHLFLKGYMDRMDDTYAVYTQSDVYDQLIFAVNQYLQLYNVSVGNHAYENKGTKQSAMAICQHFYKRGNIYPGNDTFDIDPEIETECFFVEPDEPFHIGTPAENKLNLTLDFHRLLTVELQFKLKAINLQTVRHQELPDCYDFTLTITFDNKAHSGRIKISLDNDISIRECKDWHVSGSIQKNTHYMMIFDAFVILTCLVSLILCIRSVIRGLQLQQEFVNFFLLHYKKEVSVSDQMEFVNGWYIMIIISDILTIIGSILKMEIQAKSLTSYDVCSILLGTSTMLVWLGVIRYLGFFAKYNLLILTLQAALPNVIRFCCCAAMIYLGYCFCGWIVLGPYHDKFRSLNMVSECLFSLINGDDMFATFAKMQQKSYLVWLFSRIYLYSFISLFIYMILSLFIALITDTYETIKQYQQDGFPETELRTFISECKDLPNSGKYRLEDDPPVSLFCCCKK

[2] = molecular target: Ion channel NompC (Danio rerio, UniProt Q7T1G6); experiment: Fluorescence counterscreen assay for TRPML3 agonists: dose response cell-based high-throughput screening assay to identify agonists of the transient receptor potential channel N1 (TRPN1). [Related pubchem assays: 1526, 1424, 1448 ]; assay type: functional
Ion channel NompC, sequence (Q7T1G6 whole entry): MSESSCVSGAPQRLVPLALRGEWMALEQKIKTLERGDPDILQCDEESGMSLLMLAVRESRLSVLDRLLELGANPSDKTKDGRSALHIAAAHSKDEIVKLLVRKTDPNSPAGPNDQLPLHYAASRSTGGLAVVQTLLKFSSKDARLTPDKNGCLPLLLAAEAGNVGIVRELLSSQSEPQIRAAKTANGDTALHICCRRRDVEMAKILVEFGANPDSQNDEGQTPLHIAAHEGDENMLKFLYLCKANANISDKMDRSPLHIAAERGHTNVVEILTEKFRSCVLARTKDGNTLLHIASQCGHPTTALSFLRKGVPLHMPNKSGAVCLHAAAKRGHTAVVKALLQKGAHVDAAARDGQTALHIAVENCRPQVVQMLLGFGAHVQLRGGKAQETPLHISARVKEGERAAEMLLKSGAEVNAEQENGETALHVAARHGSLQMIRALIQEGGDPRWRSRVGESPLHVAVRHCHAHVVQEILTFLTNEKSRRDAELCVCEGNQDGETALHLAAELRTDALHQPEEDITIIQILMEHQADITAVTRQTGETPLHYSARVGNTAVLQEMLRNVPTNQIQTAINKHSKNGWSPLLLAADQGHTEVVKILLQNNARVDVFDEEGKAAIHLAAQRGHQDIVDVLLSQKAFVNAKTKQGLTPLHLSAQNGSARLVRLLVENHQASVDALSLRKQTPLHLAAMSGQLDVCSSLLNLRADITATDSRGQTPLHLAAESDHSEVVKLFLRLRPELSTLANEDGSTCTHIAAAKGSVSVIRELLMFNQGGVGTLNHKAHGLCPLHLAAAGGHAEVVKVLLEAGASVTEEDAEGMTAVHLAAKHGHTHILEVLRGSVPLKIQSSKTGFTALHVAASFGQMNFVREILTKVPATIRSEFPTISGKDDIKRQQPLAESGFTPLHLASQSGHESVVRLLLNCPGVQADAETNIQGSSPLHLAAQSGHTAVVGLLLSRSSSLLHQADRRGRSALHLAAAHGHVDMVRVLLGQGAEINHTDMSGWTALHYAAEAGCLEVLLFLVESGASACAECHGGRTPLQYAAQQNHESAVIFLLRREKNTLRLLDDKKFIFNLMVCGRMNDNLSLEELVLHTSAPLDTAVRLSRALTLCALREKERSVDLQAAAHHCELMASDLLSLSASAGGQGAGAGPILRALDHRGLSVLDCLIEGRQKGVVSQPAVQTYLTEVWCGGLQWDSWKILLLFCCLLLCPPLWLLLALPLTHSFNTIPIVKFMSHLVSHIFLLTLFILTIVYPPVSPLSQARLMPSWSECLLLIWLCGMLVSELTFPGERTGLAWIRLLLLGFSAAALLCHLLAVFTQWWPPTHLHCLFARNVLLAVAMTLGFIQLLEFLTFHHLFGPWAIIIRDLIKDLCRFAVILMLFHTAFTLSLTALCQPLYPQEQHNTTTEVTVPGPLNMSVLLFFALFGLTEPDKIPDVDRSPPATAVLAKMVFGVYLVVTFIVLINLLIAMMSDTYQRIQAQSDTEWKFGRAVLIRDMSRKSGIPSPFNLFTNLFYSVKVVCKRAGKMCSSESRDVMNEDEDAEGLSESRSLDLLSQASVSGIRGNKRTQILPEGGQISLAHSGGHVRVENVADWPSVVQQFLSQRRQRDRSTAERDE

[3] = M. tuberculosis H37Rv growth inhibitors, H37Rv strain (AID 1626); assay type: functional
[4] = molecular target: RNA-editing ligase 1, mitochondrial (Trypanosoma brucei brucei, UniProt P86926); experiment: TbREL1 ligase inhibitors, dose response, biochemical, fluorescence, Trypanosoma brucei (AID 1117295); assay type: functional
RNA-editing ligase 1, mitochondrial, sequence (P86926 whole entry): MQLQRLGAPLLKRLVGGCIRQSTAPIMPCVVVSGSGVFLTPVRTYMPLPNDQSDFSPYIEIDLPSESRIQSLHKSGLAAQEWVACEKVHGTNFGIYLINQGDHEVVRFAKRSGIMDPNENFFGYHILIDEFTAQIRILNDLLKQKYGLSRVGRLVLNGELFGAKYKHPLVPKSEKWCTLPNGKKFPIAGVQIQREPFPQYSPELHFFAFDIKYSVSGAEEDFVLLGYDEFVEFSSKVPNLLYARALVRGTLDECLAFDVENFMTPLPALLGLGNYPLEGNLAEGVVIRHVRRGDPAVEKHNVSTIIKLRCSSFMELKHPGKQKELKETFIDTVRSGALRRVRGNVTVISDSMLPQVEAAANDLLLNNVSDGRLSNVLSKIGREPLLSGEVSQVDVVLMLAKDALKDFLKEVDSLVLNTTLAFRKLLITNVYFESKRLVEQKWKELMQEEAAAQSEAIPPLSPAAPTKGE

[5] = test system: HeLa; experiment: Cytotoxicity counterscreen assay for transcriptional activators of heat shock protein 70 (Hsp70). [Related pubchem assays: 1203, 1252 ]; assay type: functional; conditions: Homo sapiens;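 further: cells exposed to compound for 16 hours before readout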
[6] = molecular target: Heat shock protein HSP 90-alpha (Homo sapiens, UniProt P07900); experiment: Luminescence-based dose response biochemical high throughput screening assay for inhibitors of the Heat Shock Protein 90 (HSP90). [Related pubchem assays: 1831 (Summary AID.), 1846 (Confirmation screen.), 1789 (Primary screen.)]
[7] = molecular target: Ubiquitin carboxyl-terminal hydrolase BAP1 (Homo sapiens, UniProt Q92560); experiment: BAP1 deubiquitinase inhibitors, dose response, biochemical (AID 714); assay type: functional
Ubiquitin carboxyl-terminal hydrolase BAP1, sequence (Q92560 whole entry): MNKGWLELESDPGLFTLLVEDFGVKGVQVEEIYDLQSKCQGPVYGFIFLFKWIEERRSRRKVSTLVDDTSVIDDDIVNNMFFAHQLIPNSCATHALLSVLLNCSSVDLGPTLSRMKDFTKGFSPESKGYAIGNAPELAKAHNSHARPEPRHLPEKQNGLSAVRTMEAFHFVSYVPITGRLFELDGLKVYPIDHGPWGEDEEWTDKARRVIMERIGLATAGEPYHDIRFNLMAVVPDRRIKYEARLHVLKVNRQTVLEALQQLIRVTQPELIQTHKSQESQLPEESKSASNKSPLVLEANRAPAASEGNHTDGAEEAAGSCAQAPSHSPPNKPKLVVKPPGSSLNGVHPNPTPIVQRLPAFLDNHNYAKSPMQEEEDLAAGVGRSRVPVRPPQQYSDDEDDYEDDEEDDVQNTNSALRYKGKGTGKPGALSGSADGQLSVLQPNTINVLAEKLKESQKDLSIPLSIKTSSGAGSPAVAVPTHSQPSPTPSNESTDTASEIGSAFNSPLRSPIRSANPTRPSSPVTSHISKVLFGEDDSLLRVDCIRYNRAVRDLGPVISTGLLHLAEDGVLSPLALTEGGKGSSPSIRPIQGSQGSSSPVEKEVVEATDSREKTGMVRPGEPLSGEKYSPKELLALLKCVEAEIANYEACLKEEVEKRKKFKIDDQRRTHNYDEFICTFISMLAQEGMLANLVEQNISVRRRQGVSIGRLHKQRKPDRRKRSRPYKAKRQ

[8] = molecular target: T2, Bcl-2-related protein A1 (Mus musculus, UniProt Q07440); experiment: Bfl-1 inhibitors, primary screen, biochemical, fluorescence polarization, FITC-Bid, mouse (AID 432)
T2 sequence (Q07440 whole entry): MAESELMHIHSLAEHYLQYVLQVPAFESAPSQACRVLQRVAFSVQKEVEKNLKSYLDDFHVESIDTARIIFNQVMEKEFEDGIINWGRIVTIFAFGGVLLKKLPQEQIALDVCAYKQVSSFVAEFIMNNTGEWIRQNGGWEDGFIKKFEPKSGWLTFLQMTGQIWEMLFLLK

[9] = molecular target: T2, Bcl-2-related protein A1; experiment: Bfl-1 inhibitors blocking BH3 peptide binding, confirmation, biochemical, TR-FRET, mouse Bfl-1 (AID 621);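 further: TR-FRET binding of GST-Bfl-1 to FITC-labelled Bid peptide via terbium antibody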
[10] = molecular target: Peroxisome proliferator-activated receptor gamma/Nuclear receptor coactivator 1 (Homo sapiens, UniProt P37231); experiment: (§1) TR-FRET dose response biochemical High Throughput Screening assay for agonists of the steroid receptor coactivator 1 (SRC-1) recruitment by the peroxisome proliferator-activated receptor gamma (PPAR gamma): non-selective agonists. [Related pubchem assays (depositor defined):AID1300, AID1808, AID504735, AID631]; assay type: protein assay
[11] = molecular target: Peroxisome proliferator-activated receptor gamma/Nuclear receptor coactivator 3 (Homo sapiens, UniProt P37231); experiment: as §1, with “3 (SRC-3)” for “1 (SRC-1)”, “assays: 1301 (Confirmation screen.), 1048 (Primary screen.)]” for “assays (depositor defined):AID1300, AID1808, AID504735, AID631]”; assay type: functional
[12] = molecular target: Peroxisome proliferator-activated receptor gamma/Nuclear receptor coactivator 2 (Homo sapiens, UniProt P37231); experiment: TR-FRET dose response biochemical High Throughput Screening assay for agonists of the steroid receptor coactivator 2 (SRC-2) recruitment by the peroxisome proliferator-activated receptor gamma (PPAR gamma): non-selective agonists. [Related pubchem assays: 1297, 1032 ]; assay type: functional
[13] = molecular target: Mitogen-activated protein kinase 10 (Homo sapiens, UniProt P53779); experiment: Dose response biochemical screening assay for inhibitors of c-Jun N-Terminal Kinase 3 (JNK3). [Related pubchem assays: 746 ]
Mitogen-activated protein kinase 10, sequence (P53779 whole entry): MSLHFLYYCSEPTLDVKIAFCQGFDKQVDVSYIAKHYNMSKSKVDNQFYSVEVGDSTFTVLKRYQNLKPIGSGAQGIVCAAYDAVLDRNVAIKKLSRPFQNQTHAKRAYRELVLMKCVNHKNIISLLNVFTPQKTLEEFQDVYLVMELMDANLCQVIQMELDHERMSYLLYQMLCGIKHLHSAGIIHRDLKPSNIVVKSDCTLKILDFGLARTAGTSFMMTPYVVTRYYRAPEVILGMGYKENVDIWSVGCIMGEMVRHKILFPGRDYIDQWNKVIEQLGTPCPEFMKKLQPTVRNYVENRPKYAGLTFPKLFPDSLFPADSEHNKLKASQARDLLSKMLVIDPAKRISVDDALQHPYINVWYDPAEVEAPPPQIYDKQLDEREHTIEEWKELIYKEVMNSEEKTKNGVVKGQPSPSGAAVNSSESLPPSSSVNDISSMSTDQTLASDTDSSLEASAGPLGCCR

[14] = test system: Vero; experiment: host cell cytotoxicity of antiviral hits, dose response, cytotoxicity control for West Nile virus antiviral project, secondary assay (AID 1650); assay type: functional; conditions: Chlorocebus sabaeus
[15] = molecular target: Glyceraldehyde-3-phosphate dehydrogenase (Homo sapiens, UniProt P04406)
Glyceraldehyde-3-phosphate dehydrogenase, sequence (P04406 whole entry): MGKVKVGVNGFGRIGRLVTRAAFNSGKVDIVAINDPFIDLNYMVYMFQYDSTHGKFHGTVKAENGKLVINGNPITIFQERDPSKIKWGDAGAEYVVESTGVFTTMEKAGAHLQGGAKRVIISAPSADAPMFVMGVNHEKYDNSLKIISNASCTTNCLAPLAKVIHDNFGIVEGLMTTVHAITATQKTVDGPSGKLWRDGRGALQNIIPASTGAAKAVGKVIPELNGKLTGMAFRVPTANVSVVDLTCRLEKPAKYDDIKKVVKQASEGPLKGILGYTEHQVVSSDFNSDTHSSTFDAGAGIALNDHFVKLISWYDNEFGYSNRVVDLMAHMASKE

[16] = molecular target: T3, Estrogen receptor (Homo sapiens, UniProt P03372);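 further: potency for inhibiting coactivator peptide recruitment to the receptor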
T3 sequence (P03372 whole entry): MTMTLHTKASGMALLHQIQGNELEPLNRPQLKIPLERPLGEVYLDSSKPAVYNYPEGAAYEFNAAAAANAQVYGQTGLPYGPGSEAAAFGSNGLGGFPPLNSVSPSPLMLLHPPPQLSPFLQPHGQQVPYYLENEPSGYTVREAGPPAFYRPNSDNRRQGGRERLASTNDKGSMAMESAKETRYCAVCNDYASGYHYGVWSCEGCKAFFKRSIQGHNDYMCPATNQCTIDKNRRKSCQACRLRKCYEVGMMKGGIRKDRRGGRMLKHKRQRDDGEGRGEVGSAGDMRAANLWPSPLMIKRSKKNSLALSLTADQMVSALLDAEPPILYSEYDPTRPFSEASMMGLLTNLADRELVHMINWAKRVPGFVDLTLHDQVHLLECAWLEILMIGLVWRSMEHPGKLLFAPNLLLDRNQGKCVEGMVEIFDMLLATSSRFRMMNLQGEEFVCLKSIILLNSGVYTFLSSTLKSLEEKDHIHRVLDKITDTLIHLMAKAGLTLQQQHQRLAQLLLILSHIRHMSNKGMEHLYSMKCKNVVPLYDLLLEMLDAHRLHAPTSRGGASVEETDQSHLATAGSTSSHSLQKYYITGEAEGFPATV

[17] = molecular target: T4, Estrogen receptor beta (Homo sapiens, UniProt Q92731);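 further: recombinant ER-beta bound to coactivator SRC1 peptide in presence of estradiol agonist; inhibitors block coactivator peptide binding and lower the FRET signal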
T4 sequence (Q92731 whole entry): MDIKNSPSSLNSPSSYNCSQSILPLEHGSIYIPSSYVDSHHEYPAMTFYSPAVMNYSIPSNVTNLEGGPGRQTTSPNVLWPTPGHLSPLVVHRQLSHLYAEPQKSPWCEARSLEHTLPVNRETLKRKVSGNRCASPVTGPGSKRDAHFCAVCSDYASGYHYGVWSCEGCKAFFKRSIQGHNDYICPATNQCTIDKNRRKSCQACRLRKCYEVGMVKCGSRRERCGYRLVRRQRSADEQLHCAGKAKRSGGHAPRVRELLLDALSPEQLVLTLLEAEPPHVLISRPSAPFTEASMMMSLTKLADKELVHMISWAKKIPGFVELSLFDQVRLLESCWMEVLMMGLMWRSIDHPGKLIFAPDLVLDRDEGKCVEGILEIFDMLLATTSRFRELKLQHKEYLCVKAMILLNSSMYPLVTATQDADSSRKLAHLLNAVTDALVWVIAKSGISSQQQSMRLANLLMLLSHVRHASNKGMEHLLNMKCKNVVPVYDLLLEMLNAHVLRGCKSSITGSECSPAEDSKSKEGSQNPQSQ

[18] = molecular target: T2, Bcl-2-related protein A1; experiment: Bfl-1 binding inhibitors, SAR follow-up, biochemical, fluorescence polarization (AID 1070)
[19] = molecular target: T4, Estrogen receptor beta; experiment: ERβ–SRC-3 coactivator interaction inhibitors, confirmation, orthogonal assay, biochemical, ELISA, streptavidin-HRP readout (AID 1060)
[20] = molecular target: T5, Small ubiquitin-related modifier 1 (Homo sapiens, UniProt P63165); experiment: inhibitors of SUMO1 peptide binding, dose response, biochemical, fluorescence polarization, uHTS hits (AID 624382); assay type: functional; conditions: read-out: IC50_Mean
T5 sequence (P63165 whole entry): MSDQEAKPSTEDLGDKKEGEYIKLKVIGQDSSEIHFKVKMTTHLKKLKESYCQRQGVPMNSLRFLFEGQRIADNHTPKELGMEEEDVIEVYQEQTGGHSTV

[21] = molecular target: T5, Small ubiquitin-related modifier 1; experiment: inhibitors of SUMO1 partner interactions, dose response, biochemical, FRET (AID 624383); assay type: functional; conditions: read-out: IC50_Mean
[22] = Counterscreen for IDE inhibitors: Luminescence-based cell-based high throughput dose response assay to identify compounds that are cytotoxic to HEK cells. [Related pubchem assays: 434962 (Primary screen (IDE inhibitors in singlicate)), 449730 (Counterscreen (Cytotoxicity in triplicate)), 435028 (Confirmation (IDE inhibitors in triplicate)) …; assay type: functional; conditions: HEK293
[23] = molecular target: T6, Insulin-degrading enzyme (Homo sapiens, UniProt P14735); experiment: Dose Response: Fluorescence polarization-based cell-based high throughput dose response assay for inhibitors of insulin-degrading enzyme (IDE). [Related pubchem assays: 434962 (Primary screen (IDE inhibitors in singlicate)), 449730 (Counterscreen (Cytotoxicity in triplicate)), 435028 (Confirmation (IDE inhibitors in triplicate)), 434984 (Summary …; assay type: functional
T6 sequence (P14735 whole entry): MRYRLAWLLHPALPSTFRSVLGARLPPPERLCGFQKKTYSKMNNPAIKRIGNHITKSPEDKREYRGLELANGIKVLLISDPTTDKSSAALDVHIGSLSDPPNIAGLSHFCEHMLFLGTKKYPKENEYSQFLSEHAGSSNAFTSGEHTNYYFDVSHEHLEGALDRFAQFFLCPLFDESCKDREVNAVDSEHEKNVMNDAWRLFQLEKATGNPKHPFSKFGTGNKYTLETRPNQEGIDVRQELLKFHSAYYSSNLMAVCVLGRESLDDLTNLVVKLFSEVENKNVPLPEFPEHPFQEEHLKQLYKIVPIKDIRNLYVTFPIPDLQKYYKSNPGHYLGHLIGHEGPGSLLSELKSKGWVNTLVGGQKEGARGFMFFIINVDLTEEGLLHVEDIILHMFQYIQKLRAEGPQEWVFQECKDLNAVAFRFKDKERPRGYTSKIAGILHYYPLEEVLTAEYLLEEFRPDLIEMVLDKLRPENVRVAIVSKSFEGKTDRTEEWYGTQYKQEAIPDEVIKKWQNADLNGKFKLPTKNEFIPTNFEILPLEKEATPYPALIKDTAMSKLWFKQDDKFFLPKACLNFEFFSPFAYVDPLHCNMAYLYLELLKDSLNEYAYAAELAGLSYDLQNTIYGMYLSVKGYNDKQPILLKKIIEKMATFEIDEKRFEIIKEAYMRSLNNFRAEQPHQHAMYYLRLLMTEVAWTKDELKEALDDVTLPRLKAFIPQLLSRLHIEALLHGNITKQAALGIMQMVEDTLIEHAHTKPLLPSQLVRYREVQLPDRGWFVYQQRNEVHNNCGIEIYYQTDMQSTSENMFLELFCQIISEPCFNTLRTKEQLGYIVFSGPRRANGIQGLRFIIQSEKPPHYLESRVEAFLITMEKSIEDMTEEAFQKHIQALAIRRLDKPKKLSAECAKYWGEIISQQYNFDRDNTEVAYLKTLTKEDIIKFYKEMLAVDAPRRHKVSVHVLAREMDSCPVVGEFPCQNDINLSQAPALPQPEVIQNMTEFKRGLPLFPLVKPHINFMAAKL

## CC1=CC(C)(C)N(C(=O)CSc2nnc(-c3ccccc3)o2)c2ccc(C)cc21
[1]
  EC50: 4.18 µM (active)
[2]
  EC50: > 29.9 µM (not active)

## O=C(CSc1nnc(-c2ccco2)o1)c1ccccc1Cl
[3]
  IC50: > 100 µM (active)

## COC(=O)C1=C(C)N(Cc2ccccc2C(F)(F)F)C(NCc2ccc3c(c2)OCO3)=NC1c1ccc(C(F)(F)F)cc1 (stereo unspecified)
[4]
  IC50: > 96.6 µM (inactive)

## Cc1cccc(-c2noc(CCCC(=O)N3CCOCC3)n2)c1
[5]
  CC50: > 99 µM (not active)

## COCCn1c(C)cc(C(=O)Cn2nc(C(=O)O)c3ccccc3c2=O)c1C
[6]
  IC50: 3.73 µM (active)

## CC(=O)C1=C(C)NC(SCC(=O)c2ccc(Cl)c(Cl)c2)=C(C#N)C1c1ccco1 (stereo unspecified)
[7]
  IC50: > 50 µM (not active)

## COCCn1cnc2cc(C)c(C)cc21
[8]
  IC50: > 100 µM (not active)
[9]
  IC50: > 100 µM (not active)

## CCOC(=O)CC(=O)CSc1ncnc2c1oc1ccccc12
[10]
  EC50: > 79.4 µM (inactive)
[11]
  EC50: > 79.4 µM (not active)
[12]
  EC50: > 26.5 µM (not active)
[13]
  IC50: > 31 µM (not active)

## CCOC(=O)c1c(NC(=O)CSc2nnc(CNc3ccc(F)cc3)o2)sc(C)c1C
[7]
  IC50: 29.1 µM (active)

## O=C1/C(=C/c2ccco2)SC(=S)N1CCC(=O)N1CCCCC1CCO (stereo unspecified)
[14]
  CC50: 13.4 µM (active)

## COC(=O)C1=C(C)N(Cc2ccccc2C(F)(F)F)C(NCC2CC2)=NC1c1ccc(F)cc1 (stereo unspecified)
[4]
  IC50: > 96.6 µM (inactive)

## O=C(Nc1cnn(C23CC4CC(CC(C4)C2)C3)c1)c1cnn2c(C(F)(F)F)cc(-c3ccco3)nc12
[8]
  IC50: 11.2 µM (active)
[15]
  IC50: > 100 µM (not active)
[16]
  IC50: 3.64 µM (active)
[9]
  IC50: 1.76 µM (active) and 12.3 µM (active)
[17]
  IC50: > 50 µM (not active)
[18]
  IC50: 1.69 µM (active)
[19]
  IC50: < 0.023 µM (not active)

## O=C(O)c1cccc(NC(=S)NC(NC(=O)c2cccc([N+](=O)[O-])c2)C(Cl)(Cl)Cl)c1 (stereo unspecified)
[6]
  IC50: 9.85 µM (active)
[20]
  IC50: > 66.6 µM (inactive)
[21]
  IC50: 10.8 µM (active)

## Cc1c(-c2cccc(Cl)c2)nc2ccccc2c1C(=O)OCC(=O)N(C)C1CCS(=O)(=O)C1 (stereo unspecified)
[22]
  IC50: 36.1 µM (not active)
[23]
  IC50: > 55.9 µM (not active)

## Cc1ccc(S(=O)(=O)N(CC(=O)N2CCCCC2)c2cccc(C)c2)cc1
[1]
  EC50: 1.24 µM (active)
[2]
  EC50: > 29.9 µM (not active)

## O=C(CSc1ncccc1-c1nc2ccccc2[nH]1)N1CCN(c2ccccc2F)CC1
[13]
  IC50: 55.9 µM (not active)
